These results are taken from ChEMBL document CHEMBL1201862, “PubChem BioAssay data set” (2004).

Test systems include HOP-92; SK-MEL-5; OVCAR-3; K562; T47D; M14; NCI-H460; HT-29; BT-549; LOX IMVI; MCF7; HCT-116; IGROV-1; CAKI-1; MDA-N; DU-145; EKVX; SF-295; UO-31; MOLT-4.
What all share (experiment): inhibition of tumour cell growth, NCI panel, 48 h

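Tested at 5 concentrations; 48 h exposure; 96-well plates; endpoints linearly interpolated, else capped at highest concentration. GI50 marks 50% less growth.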 Calls of active or inactive are those of the source. Cut-off read from the data, not from the text of the source: active = GI50 up to about 1.1 µM and inactive = higher.

Consider `N#CC(C#N)=C(N)/C(C#N)=C/c1ccc2ccccc2n1`, for which the GI50 in the test on HOP-92 was 18.3 µM (inactive); with SK-MEL-5, 23.8 µM (inactive); in the test on OVCAR-3, 13.5 µM (inactive); in the test on K562, 32.6 µM (inactive); in the test on T47D, > 100 µM (inactive); in the test on M14 it was 33.7 µM (inactive). For the same compound, the GI50 with NCI-H460 is 85.7 µM (inactive); in the test with HT-29, 18.6 µM (inactive); in the test on BT-549 it was 26.5 µM (inactive); in the test on LOX IMVI, 19.3 µM (inactive); with MCF7, 30.7 µM (inactive); in the test with HCT-116, 15.1 µM (inactive). The GI50 was 16.9 µM (inactive) in the test on IGROV-1; 22.6 µM (inactive) in the test with CAKI-1; 32.7 µM (inactive) in the test on MDA-N; > 100 µM (inactive) in the test with DU-145; > 100 µM (inactive) with EKVX; 21.3 µM (inactive) in the test on SF-295. In addition, the GI50 with UO-31 was 15.5 µM (inactive); in the test with MOLT-4, 30.3 µM (inactive).
On to `COc1ccc(C(=O)Nc2ccc3oc(-c4ccccc4)nc3c2)cc1`, for which the GI50 with HOP-92, in the test with SK-MEL-5, in the test with OVCAR-3, in the test on K562, in the test on T47D and in the test with M14 was > 100 µM (inactive) in each case. Also, the GI50 in the test on NCI-H460, in the test on HT-29, in the test on BT-549, in the test with LOX IMVI, with MCF7 and in the test with HCT-116 was > 100 µM (inactive) each time. Further, the GI50 in the test with IGROV-1, with CAKI-1, with MDA-N, in the test on DU-145, in the test with EKVX and in the test on SF-295 was > 100 µM (inactive) throughout. Besides, the GI50 was 0.227 µM (active) with UO-31 and > 100 µM (inactive) in the test with MOLT-4.
As to `COC1=CC(=O)N(C)C(O)C1(C#N)OC1OC(CO)C(O)C(O)C1O` (stereo not given), the GI50 in the test on HOP-92 is > 100 µM (inactive); with SK-MEL-5, > 100 µM (inactive); in the test with OVCAR-3, > 100 µM (inactive); in the test with K562, > 10 µM (inactive); in the test on T47D it was > 100 µM (inactive); with M14, > 100 µM (inactive). For the same compound, the GI50 with NCI-H460 is > 100 µM (inactive); in the test with HT-29, > 10 µM (inactive); in the test on BT-549, > 100 µM (inactive); with LOX IMVI, > 100 µM (inactive); with MCF7 it was > 100 µM (inactive); in the test with HCT-116, > 100 µM (inactive). For the same compound, the GI50 in the test with IGROV-1, in the test on CAKI-1, in the test on MDA-N, in the test on DU-145, in the test with EKVX and in the test on SF-295 was > 100 µM (inactive) in each case. Further, the GI50 in the test with UO-31 and in the test with MOLT-4 was > 100 µM (inactive) in each case.
`N#CCCN(C(=O)Nc1ccccc1)[C@H]1CCCC[C@@H]1N(C(=O)Nc1ccccc1)c1ccccc1`: the GI50 was > 100 µM (inactive) in the test on HOP-92; > 100 µM (inactive) in the test with SK-MEL-5; > 100 µM (inactive) in the test with OVCAR-3; 49.1 µM (inactive) with K562; > 100 µM (inactive) in the test with T47D; 64.7 µM (inactive) with M14. Besides, the GI50 is 48.2 µM (inactive) in the test on NCI-H460; 43 µM (inactive) with HT-29; > 100 µM (inactive) in the test with BT-549; > 100 µM (inactive) in the test on LOX IMVI; 48.2 µM (inactive) in the test with MCF7; 66.7 µM (inactive) with HCT-116. The GI50 was 61 µM (inactive) with IGROV-1; > 100 µM (inactive) with CAKI-1; > 100 µM (inactive) with MDA-N; > 100 µM (inactive) with DU-145; 65.5 µM (inactive) in the test on EKVX; 55.7 µM (inactive) in the test on SF-295. The GI50 with UO-31 is 54.2 µM (inactive); with MOLT-4 it was 25.1 µM (inactive).
Take `C/C(=C\c1csc(C)n1)[C@@H]1C[C@@H]2O[C@@H]2CCC[C@H](C)[C@H](O)[C@@H](C)C(=O)C(C)(C)[C@@H](O)CC(=O)O1.C/C(=C\c1csc(C)n1)[C@@H]1C[C@@H]2O[C@]2(C)CCC[C@H](C)[C@H](O)[C@@H](C)C(=O)C(C)(C)[C@@H](O)CC(=O)O1`: the GI50 in the test on HOP-92 is 0.0698 µM (active); with SK-MEL-5 it was 0.00408 µM (active); in the test with OVCAR-3, 0.00333 µM (active); in the test with K562, 0.00787 µM (active); in the test on T47D, 0.0366 µM (active); in the test with M14, 0.00266 µM (active). For the same compound, the GI50 with NCI-H460 was 0.00129 µM (active); in the test with HT-29, 0.00107 µM (active); in the test with BT-549 it was 0.0569 µM (active); in the test with LOX IMVI it was 0.00272 µM (active); in the test on MCF7 it was 0.00293 µM (active); with HCT-116, 0.00173 µM (active). For the same compound, the GI50 in the test on IGROV-1 was 0.00241 µM (active); with CAKI-1, 0.0101 µM (active); in the test with MDA-N, 0.000326 µM (active); with DU-145 it was 0.00604 µM (active); in the test with EKVX, 0.0252 µM (active); in the test with SF-295, 0.00567 µM (active). The values for the GI50 in the test with UO-31 and in the test with MOLT-4 were 0.0297 µM (active) and 0.00738 µM (active), respectively.
In the case of `CC(=O)NC1C(OCc2ccccc2)OC(CO)C(O)C1OCC(=O)NC(C(=O)NC(CCC(=O)NCCCCCC(=O)Nc1ccc2c(c1)CN1C(=O)c3ccccc3C1=N2)C(N)=O)C(C)C` (stereo not given), the GI50 was 95.7 µM (inactive) in the test with HOP-92; 21.4 µM (inactive) in the test with SK-MEL-5; 67.6 µM (inactive) in the test on OVCAR-3; 36 µM (inactive) with K562; 22.3 µM (inactive) with T47D; 40.6 µM (inactive) in the test on M14. The GI50 is 20.8 µM (inactive) in the test on NCI-H460; 42.8 µM (inactive) with HT-29; 21.6 µM (inactive) in the test with BT-549; 34.4 µM (inactive) with LOX IMVI; 16.9 µM (inactive) in the test with MCF7; 36.2 µM (inactive) in the test on HCT-116. For the same compound, the GI50 in the test on IGROV-1 was 20.3 µM (inactive); with CAKI-1, 28.8 µM (inactive); with MDA-N, 62.7 µM (inactive); with DU-145, 63.8 µM (inactive); in the test with EKVX, 31.6 µM (inactive); in the test on SF-295, 24.7 µM (inactive). Besides, the GI50 with UO-31 was 47.4 µM (inactive); with MOLT-4 it was > 100 µM (inactive).
In the case of `CCC(C(=O)c1cccs1)C(O)(C(F)(F)F)C(F)(F)F` (stereo not given), the GI50 in the test on HOP-92, with SK-MEL-5, in the test on OVCAR-3, with K562, with T47D and in the test with M14 was > 100 µM (inactive) throughout. Besides, the GI50 in the test on NCI-H460, in the test on HT-29, in the test with BT-549, in the test on LOX IMVI, in the test with MCF7 and in the test with HCT-116 was > 100 µM (inactive) throughout. The GI50 in the test with IGROV-1, in the test on CAKI-1, in the test with MDA-N, in the test with DU-145, with EKVX and in the test on SF-295 was > 100 µM (inactive) in each case. Further, the GI50 with UO-31 and in the test with MOLT-4 was > 100 µM (inactive) throughout.
As to `CCCCCCc1cc(C=O)sc1-c1ccc(-c2sc(-c3ccc(-c4ccc(-c5cc(CCCCCC)c(-c6ccc(-c7sc(C=O)cc7CCCCCC)s6)s5)s4)s3)cc2CCCCCC)s1`, the GI50 with HOP-92, with SK-MEL-5, in the test with OVCAR-3, in the test on K562, in the test with T47D and with M14 was > 100 µM (inactive) throughout. Also, the GI50 in the test on NCI-H460, in the test on HT-29, in the test with BT-549, in the test on LOX IMVI, in the test on MCF7 and in the test with HCT-116 was > 100 µM (inactive) each time. Moreover, the GI50 with IGROV-1, in the test with CAKI-1, in the test on MDA-N, in the test with DU-145, in the test with EKVX and in the test on SF-295 was > 100 µM (inactive) throughout. Further, the GI50 in the test on UO-31 and with MOLT-4 was > 100 µM (inactive) throughout.
Regarding `CC1=C(N2CC2)C(=O)C(C)=C(N2CC2)C1=O`, the GI50 in the test on HOP-92 is 0.17 µM (active); in the test with SK-MEL-5 it was 0.155 µM (active); in the test with OVCAR-3, 0.249 µM (active); with K562 it was 0.254 µM (active); in the test on T47D it was 0.208 µM (active); with M14, 0.189 µM (active). The GI50 in the test with NCI-H460 was < 0.0111 µM (active); with HT-29, 0.175 µM (active); with BT-549 it was 0.417 µM (active); with LOX IMVI it was 0.112 µM (active); in the test on MCF7 it was 0.0212 µM (active); in the test on HCT-116 it was 0.206 µM (active). The GI50 is 0.215 µM (active) in the test with IGROV-1; 0.0991 µM (active) with CAKI-1; 0.0998 µM (active) with MDA-N; 0.0469 µM (active) with DU-145; 0.697 µM (active) with EKVX; 0.127 µM (active) with SF-295. Further, the GI50 with UO-31 was 0.0912 µM (active); in the test on MOLT-4, 0.0753 µM (active).
As to `CCOC(=O)CNC(=O)C(CSC(=O)N(O)c1ccc(Cl)cc1)NC(=O)CCC(N)C(=O)OCC` (stereo not given), the GI50 in the test on HOP-92 is 3.98 µM (inactive); in the test with SK-MEL-5 it was > 50 µM (inactive); in the test with OVCAR-3, > 50 µM (inactive); in the test on K562 it was 11.8 µM (inactive); in the test on T47D, > 50 µM (inactive); with M14, 34.8 µM (inactive). The GI50 with NCI-H460, with HT-29, in the test with BT-549, with LOX IMVI, in the test with MCF7 and with HCT-116 was > 50 µM (inactive) throughout. For the same compound, the GI50 was 4.14 µM (inactive) in the test on IGROV-1; > 50 µM (inactive) in the test on CAKI-1; 36 µM (inactive) with MDA-N; > 50 µM (inactive) in the test with DU-145; 12.5 µM (inactive) in the test with EKVX; > 50 µM (inactive) in the test on SF-295. For the same compound, the GI50 with UO-31 is > 50 µM (inactive); with MOLT-4, 19.3 µM (inactive).
